Source: ChEMBL document CHEMBL4507305, “Data for DCP probe TP-024” (2021)

Key:
[1] = target: AP2-associated protein kinase 1 (Homo sapiens) (UniProt Q2M2I8); settings: Compound concentration 1000.0 nM
[2] = tested on: Tyrosine-protein kinase ABL1 (Homo sapiens), P00519 [H396P]; settings: Compound concentration 1000.0 nM
[3] = tested on: Tyrosine-protein kinase ABL1 (Homo sapiens), P00519 [Q252H]; settings: Compound concentration 1000.0 nM
[4] = target: RAC-alpha serine/threonine-protein kinase (Homo sapiens) (UniProt P31749); settings: Compound concentration 1000.0 nM
[5] = tested on: ALK tyrosine kinase receptor (Homo sapiens), Q9UM73 [C1156Y]; settings: Compound concentration 1000.0 nM
[6] = target: Serine/threonine-protein kinase B-raf (Homo sapiens) (UniProt P15056); settings: Compound concentration 1000.0 nM
[7] = target: Calcium/calmodulin-dependent protein kinase type 1 (Homo sapiens) (UniProt Q14012); settings: Compound concentration 1000.0 nM
[8] = target: Cyclin-dependent kinase 19 (Homo sapiens) (UniProt Q9BWU1); settings: Compound concentration 1000.0 nM
[9] = target: Cyclin-dependent kinase 3 (Homo sapiens) (UniProt Q00526); settings: Compound concentration 1000.0 nM
[10] = target: Dual specificity protein kinase CLK4 (Homo sapiens) (UniProt Q9HAZ1); settings: Compound concentration 1000.0 nM
[11] = tested on: Epidermal growth factor receptor (Homo sapiens), P00533 [UNDEFINED MUTATION]; settings: Compound concentration 1000.0 nM
[12] = tested on: Epidermal growth factor receptor (Homo sapiens), P00533 [L861Q]; settings: Compound concentration 1000.0 nM
[13] = tested on: Epidermal growth factor receptor (Homo sapiens), P00533 [UNDEFINED MUTATION]; settings: Compound concentration 1000.0 nM; remark: listed apart in the source
[14] = target: Ephrin type-A receptor 7 (Homo sapiens) (UniProt Q15375); settings: Compound concentration 1000.0 nM
[15] = target: Ephrin type-B receptor 6 (Homo sapiens) (UniProt O15197); settings: Compound concentration 1000.0 nM
[16] = target: Mitogen-activated protein kinase 1 (Homo sapiens) (UniProt P28482); settings: Compound concentration 1000.0 nM
[17] = tested on: Receptor-type tyrosine-protein kinase FLT3 (Homo sapiens), P36888 [R834Q]; settings: Compound concentration 1000.0 nM
[18] = target: Inhibitor of nuclear factor kappa-B kinase subunit beta (Homo sapiens) (UniProt O14920); settings: Compound concentration 1000.0 nM
[19] = target: Inhibitor of nuclear factor kappa-B kinase subunit epsilon (Homo sapiens) (UniProt Q14164); settings: Compound concentration 1000.0 nM
[20] = target: Interleukin-1 receptor-associated kinase 1 (Homo sapiens) (UniProt P51617); settings: Compound concentration 1000.0 nM
[21] = target: Leucine-rich repeat serine/threonine-protein kinase 2 (Homo sapiens) (UniProt Q5S007); settings: Compound concentration 1000.0 nM
[22] = target: Tyrosine-protein kinase Lyn (Homo sapiens) (UniProt P07948); settings: Compound concentration 1000.0 nM
[23] = target: MAP kinase-activated protein kinase 2 (Homo sapiens) (UniProt P49137); settings: Compound concentration 1000.0 nM
[24] = target: Serine/threonine-protein kinase MARK2 (Homo sapiens) (UniProt Q7KZI7); settings: Compound concentration 1000.0 nM
[25] = target: Hepatocyte growth factor receptor (Homo sapiens) (UniProt P08581); settings: Compound concentration 1000.0 nM
[26] = target: Serine/threonine-protein kinase PAK 1 (Homo sapiens) (UniProt Q13153); settings: Compound concentration 1000.0 nM
[27] = target: Cyclin-dependent kinase 2 homolog (Plasmodium falciparum (isolate 3D7)) (UniProt P61075); settings: Compound concentration 1000.0 nM
[28] = target: Cyclin-dependent kinase 15 (Homo sapiens) (UniProt Q96Q40); settings: Compound concentration 1000.0 nM
[29] = target: Phosphatidylinositol 4,5-bisphosphate 3-kinase catalytic subunit alpha isoform (Homo sapiens) (UniProt P42336); settings: Compound concentration 1000.0 nM
[30] = target: Serine/threonine-protein kinase pim-1 (Homo sapiens) (UniProt P11309); settings: Compound concentration 1000.0 nM
[31] = target: Serine/threonine-protein kinase pim-3 (Homo sapiens) (UniProt Q86V86); settings: Compound concentration 1000.0 nM
[32] = target: Serine/threonine-protein kinase N2 (Homo sapiens) (UniProt Q16513); settings: Compound concentration 1000.0 nM
[33] = target: Protein kinase C epsilon type (Homo sapiens) (UniProt Q02156); settings: Compound concentration 1000.0 nM
[34] = target: Protein kinase C eta type (Homo sapiens) (UniProt P24723); settings: Compound concentration 1000.0 nM
[35] = target: Protein kinase C iota type (Homo sapiens) (UniProt P41743); settings: Compound concentration 1000.0 nM
[36] = target: Interferon-induced, double-stranded RNA-activated protein kinase (Homo sapiens) (UniProt P19525); settings: Compound concentration 1000.0 nM
[37] = target: Ribosomal protein S6 kinase beta-1 (Homo sapiens) (UniProt P23443); settings: Compound concentration 1000.0 nM
[38] = target: Serine/threonine-protein kinase SIK1 (Homo sapiens) (UniProt P57059); settings: Compound concentration 1000.0 nM
[39] = target: Tyrosine-protein kinase SYK (Homo sapiens) (UniProt P43405); settings: Compound concentration 1000.0 nM
[40] = target: Serine/threonine-protein kinase tousled-like 1 (Homo sapiens) (UniProt Q9UKI8); settings: Compound concentration 1000.0 nM
[41] = target: High affinity nerve growth factor receptor (Homo sapiens) (UniProt P04629); settings: Compound concentration 1000.0 nM
[42] = target: Serine/threonine-protein kinase ULK2 (Homo sapiens) (UniProt Q8IYT8); settings: Compound concentration 1000.0 nM
[43] = target: Serine/threonine-protein kinase VRK2 (Homo sapiens) (UniProt Q86Y07); settings: Compound concentration 1000.0 nM
[44] = target: 5-hydroxytryptamine receptor 1B (Homo sapiens) (UniProt P28222); settings: Compound concentration 10.0 uM
[45] = species on record: Rattus norvegicus; settings: Compound concentration 10.0 uM

Sequence of Tyrosine-protein kinase Lyn (Homo sapiens) (P07948 2-512 limits assumed): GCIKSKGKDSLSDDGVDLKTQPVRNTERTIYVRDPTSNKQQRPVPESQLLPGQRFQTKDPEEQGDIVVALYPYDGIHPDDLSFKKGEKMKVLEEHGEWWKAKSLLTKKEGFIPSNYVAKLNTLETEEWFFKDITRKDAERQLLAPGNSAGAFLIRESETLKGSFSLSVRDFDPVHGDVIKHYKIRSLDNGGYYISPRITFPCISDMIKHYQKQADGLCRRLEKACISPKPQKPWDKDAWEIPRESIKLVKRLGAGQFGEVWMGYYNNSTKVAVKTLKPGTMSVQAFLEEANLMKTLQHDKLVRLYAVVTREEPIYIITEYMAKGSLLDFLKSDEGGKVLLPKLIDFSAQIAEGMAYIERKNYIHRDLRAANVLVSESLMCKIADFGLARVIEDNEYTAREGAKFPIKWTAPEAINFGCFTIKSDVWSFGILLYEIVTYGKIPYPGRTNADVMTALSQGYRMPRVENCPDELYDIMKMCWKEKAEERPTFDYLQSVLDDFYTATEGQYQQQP
Sequence of Ribosomal protein S6 kinase beta-1 (Homo sapiens) (P23443 whole entry, looked up): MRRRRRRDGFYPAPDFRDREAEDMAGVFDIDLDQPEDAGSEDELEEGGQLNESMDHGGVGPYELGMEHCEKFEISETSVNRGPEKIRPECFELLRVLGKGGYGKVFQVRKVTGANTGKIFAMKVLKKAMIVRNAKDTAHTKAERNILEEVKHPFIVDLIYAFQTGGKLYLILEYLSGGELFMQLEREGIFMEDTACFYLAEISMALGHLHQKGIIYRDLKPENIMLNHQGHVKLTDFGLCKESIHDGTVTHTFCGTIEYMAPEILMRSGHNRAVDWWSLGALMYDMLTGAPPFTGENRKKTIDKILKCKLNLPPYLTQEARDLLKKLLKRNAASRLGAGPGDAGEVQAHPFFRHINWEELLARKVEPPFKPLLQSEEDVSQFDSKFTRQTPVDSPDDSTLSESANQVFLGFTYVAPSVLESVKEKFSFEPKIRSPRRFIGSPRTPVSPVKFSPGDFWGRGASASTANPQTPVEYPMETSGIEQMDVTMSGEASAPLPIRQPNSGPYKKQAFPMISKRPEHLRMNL
Sequence of Serine/threonine-protein kinase VRK2 (Homo sapiens) (Q86Y07 whole entry): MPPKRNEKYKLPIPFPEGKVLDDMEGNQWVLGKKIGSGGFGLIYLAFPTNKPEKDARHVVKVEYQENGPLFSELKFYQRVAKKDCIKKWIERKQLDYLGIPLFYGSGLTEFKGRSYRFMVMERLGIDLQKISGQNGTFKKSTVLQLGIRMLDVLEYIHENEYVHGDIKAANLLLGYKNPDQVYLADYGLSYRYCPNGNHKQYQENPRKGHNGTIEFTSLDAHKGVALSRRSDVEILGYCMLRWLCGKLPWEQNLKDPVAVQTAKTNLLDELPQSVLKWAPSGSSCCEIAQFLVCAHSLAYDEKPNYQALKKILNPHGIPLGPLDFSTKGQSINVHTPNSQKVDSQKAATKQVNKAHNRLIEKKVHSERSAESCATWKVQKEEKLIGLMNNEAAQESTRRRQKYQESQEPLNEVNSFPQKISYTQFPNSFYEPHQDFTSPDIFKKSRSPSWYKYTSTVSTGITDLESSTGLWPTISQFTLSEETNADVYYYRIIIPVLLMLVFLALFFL
Sequence of Mitogen-activated protein kinase 1 (Homo sapiens) (P28482 whole entry): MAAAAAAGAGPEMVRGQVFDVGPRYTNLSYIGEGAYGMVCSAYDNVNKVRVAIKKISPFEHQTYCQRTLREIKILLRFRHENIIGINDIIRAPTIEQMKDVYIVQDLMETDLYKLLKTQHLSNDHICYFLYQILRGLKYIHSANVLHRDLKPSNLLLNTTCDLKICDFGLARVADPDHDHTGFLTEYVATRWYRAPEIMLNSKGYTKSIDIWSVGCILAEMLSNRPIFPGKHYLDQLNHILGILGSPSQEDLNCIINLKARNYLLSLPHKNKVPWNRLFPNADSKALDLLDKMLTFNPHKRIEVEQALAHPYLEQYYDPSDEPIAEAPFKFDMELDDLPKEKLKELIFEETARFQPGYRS
Sequence of Serine/threonine-protein kinase ULK2 (Homo sapiens) (Q8IYT8 whole entry): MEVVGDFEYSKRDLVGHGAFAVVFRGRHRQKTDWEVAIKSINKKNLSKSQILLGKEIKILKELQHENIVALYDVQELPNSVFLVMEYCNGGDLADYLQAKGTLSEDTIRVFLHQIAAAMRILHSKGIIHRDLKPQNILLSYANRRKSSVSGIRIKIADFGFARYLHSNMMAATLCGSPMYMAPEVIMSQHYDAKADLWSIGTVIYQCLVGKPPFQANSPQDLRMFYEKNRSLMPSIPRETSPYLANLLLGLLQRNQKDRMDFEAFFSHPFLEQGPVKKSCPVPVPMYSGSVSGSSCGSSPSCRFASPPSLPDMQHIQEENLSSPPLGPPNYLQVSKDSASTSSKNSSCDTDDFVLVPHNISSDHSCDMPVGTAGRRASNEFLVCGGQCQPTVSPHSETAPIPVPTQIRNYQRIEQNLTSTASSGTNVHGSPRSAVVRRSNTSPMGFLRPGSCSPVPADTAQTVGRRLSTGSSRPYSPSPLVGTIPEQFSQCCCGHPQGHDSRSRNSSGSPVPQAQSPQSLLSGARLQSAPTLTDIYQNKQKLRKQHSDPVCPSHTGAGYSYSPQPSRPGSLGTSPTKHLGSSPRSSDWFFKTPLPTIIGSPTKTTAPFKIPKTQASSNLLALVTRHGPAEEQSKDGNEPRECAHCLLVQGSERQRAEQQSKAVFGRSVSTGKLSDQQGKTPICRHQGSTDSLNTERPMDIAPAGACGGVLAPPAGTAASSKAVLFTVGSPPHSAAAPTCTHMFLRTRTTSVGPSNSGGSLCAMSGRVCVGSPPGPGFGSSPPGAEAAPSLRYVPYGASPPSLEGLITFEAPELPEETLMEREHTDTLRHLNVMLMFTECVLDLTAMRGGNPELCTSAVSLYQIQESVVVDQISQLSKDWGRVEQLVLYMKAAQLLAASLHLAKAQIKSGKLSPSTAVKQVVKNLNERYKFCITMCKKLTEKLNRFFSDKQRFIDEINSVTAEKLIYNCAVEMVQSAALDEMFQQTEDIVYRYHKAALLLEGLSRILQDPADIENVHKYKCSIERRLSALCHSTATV
Sequence of Protein kinase C iota type (Homo sapiens) (P41743 whole entry): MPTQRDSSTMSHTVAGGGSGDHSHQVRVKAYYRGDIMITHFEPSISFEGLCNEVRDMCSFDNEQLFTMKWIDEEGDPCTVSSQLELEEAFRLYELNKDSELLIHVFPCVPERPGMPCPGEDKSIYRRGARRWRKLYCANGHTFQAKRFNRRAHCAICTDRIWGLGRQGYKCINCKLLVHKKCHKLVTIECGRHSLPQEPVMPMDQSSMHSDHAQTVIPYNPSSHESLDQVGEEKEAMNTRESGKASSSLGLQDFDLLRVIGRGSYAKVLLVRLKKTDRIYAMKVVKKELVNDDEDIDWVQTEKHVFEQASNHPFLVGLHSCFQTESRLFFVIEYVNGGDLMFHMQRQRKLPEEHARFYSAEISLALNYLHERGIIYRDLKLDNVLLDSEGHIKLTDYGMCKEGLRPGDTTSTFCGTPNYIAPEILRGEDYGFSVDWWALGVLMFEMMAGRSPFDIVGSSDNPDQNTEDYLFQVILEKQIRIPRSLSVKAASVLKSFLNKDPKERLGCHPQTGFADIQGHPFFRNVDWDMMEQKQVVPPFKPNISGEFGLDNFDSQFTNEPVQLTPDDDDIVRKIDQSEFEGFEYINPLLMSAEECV
Sequence of Serine/threonine-protein kinase SIK1 (Homo sapiens) (P57059 whole entry): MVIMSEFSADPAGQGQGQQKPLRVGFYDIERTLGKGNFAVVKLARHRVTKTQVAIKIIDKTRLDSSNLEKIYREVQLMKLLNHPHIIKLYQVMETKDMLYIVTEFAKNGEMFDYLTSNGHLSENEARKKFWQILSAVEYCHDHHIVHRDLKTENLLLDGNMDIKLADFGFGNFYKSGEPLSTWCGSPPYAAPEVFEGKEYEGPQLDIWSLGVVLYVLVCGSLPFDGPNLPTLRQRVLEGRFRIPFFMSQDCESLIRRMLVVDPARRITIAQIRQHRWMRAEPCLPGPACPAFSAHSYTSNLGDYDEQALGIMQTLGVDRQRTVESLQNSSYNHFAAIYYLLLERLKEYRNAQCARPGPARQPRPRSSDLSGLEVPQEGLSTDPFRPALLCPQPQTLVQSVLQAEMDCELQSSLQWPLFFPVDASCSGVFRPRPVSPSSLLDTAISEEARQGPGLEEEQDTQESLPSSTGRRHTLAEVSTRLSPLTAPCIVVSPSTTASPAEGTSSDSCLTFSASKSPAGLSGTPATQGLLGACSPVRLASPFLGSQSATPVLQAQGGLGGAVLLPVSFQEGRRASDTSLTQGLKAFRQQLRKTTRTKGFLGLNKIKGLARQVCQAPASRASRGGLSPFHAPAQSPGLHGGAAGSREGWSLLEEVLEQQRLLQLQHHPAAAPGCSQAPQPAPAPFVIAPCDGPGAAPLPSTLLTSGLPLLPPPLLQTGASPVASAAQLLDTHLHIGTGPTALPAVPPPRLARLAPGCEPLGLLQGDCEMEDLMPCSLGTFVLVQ
Sequence of MAP kinase-activated protein kinase 2 (Homo sapiens) (P49137 whole entry, looked up): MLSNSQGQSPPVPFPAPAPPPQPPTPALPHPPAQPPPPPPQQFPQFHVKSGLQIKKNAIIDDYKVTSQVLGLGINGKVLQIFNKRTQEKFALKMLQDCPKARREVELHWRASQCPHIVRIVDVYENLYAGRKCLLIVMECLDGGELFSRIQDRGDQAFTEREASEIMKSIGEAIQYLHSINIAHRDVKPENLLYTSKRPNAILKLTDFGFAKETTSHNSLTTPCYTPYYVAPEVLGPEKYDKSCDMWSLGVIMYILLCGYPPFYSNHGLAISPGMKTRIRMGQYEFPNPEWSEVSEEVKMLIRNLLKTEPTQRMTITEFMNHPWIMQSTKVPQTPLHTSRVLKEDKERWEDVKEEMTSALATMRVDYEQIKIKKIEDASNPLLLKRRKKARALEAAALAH
Sequence of Cyclin-dependent kinase 3 (Homo sapiens) (Q00526 whole entry, looked up): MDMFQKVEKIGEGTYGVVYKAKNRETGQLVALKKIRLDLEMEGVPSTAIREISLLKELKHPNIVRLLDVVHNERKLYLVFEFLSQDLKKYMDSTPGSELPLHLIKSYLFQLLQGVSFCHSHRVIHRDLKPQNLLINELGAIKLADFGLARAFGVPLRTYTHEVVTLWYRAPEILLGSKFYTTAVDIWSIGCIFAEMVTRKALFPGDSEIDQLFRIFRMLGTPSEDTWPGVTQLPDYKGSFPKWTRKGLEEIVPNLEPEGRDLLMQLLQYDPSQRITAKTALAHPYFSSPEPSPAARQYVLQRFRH

SMILES: Cc1cc(-n2nc(Cc3cc(F)cc(C(F)(F)F)c3)nc2C)ccc1C(N)=O [TP-024]
- residual activity [1]: 100%
- residual activity [2]: 98%
- residual activity [3]: 100%
- residual activity [4]: 94%
- residual activity [5]: 100%
- residual activity [6]: 86%
- residual activity [7]: 90%
- residual activity [8]: 88%
- residual activity [9]: 100%
- residual activity [10]: 96%
- residual activity [11]: 83%
- residual activity [12]: 100%
- residual activity [13]: 100%
- residual activity [14]: 98%
- residual activity [15]: 100%
- residual activity [16]: 100%
- residual activity [17]: 77%
- residual activity [18]: 92%
- residual activity [19]: 82%
- residual activity [20]: 100%
- residual activity [21]: 99%
- residual activity [22]: 100%
- residual activity [23]: 100%
- residual activity [24]: 89%
- residual activity [25]: 81%
- residual activity [26]: 95%
- residual activity [27]: 100%
- residual activity [28]: 88%
- residual activity [29]: 100%
- residual activity [30]: 100%
- residual activity [31]: 100%
- residual activity [32]: 100%
- residual activity [33]: 100%
- residual activity [34]: 97%
- residual activity [35]: 100%
- residual activity [36]: 62%
- residual activity [37]: 100%
- residual activity [38]: 100%
- residual activity [39]: 87%
- residual activity [40]: 93%
- residual activity [41]: 97%
- residual activity [42]: 100%
- residual activity [43]: 100%
- inhibition [44]: 13.8%
- inhibition [45]: 7.23%

SMILES: Cc1nc(Cc2cccc(C(F)(F)F)c2)sc1-c1ccc(C(N)=O)nc1 [TP-024n]
- residual activity [1]: 96%
- residual activity [2]: 96%
- residual activity [3]: 100%
- residual activity [4]: 82%
- residual activity [5]: 68%
- residual activity [6]: 73%
- residual activity [7]: 86%
- residual activity [8]: 98%
- residual activity [9]: 88%
- residual activity [10]: 83%
- residual activity [11]: 83%
- residual activity [12]: 100%
- residual activity [13]: 100%
- residual activity [14]: 100%
- residual activity [15]: 100%
- residual activity [16]: 95%
- residual activity [17]: 92%
- residual activity [18]: 72%
- residual activity [19]: 76%
- residual activity [20]: 100%
- residual activity [21]: 92%
- residual activity [22]: 95%
- residual activity [23]: 100%
- residual activity [24]: 69%
- residual activity [25]: 63%
- residual activity [26]: 84%
- residual activity [27]: 100%
- residual activity [28]: 86%
- residual activity [29]: 88%
- residual activity [30]: 96%
- residual activity [31]: 100%
- residual activity [32]: 91%
- residual activity [33]: 100%
- residual activity [34]: 83%
- residual activity [35]: 100%
- residual activity [36]: 49%
- residual activity [37]: 83%
- residual activity [38]: 100%
- residual activity [39]: 100%
- residual activity [40]: 100%
- residual activity [41]: 64%
- residual activity [42]: 100%
- residual activity [43]: 100%
- inhibition [44]: 7.99%
- inhibition [45]: 4.9%
